A short description of data set [1]: MDR1 LLC-PK1 and BCRP MDCKII permeability assay: permeability coefficient (Papp). The data set is classed as in vitro ADME. An excerpt:
(§1) Final organic concentration in the assay was 1%.

Data set [2] has as its system A375 cells. Put plainly: Cellular phospho-ERK inhibition assay in A375 cells. The data set is classed as cell-based. Particulars: Homo sapiens, A-375, A375 cells (head prints A357), 2 hours treatment, read-out: A357 cell IC50. In a few lines:
(§2)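 In Cell Western detection of phospho-ERK1/2 (Thr202/Tyr204) over GAPDH after 2 h compound exposure (66 pM to 10 μM, 9 points, 0.25% DMSO) of A375 cells in DMEM or H1755 cells in RPMI, both with 10% FBS. Percent of control set by DMSO and 10 μM binimetinib; 4-parameter IC50.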

The target in data set [3] is BCRP (Homo sapiens (Human), UniProt Q9UNQ0). The data set is described as follows: BCRP MDCKII permeability assay: efflux ratio. The data set is classed as in vitro ADME. The note with it: dog.
Chain of BCRP (Q9UNQ0 whole entry): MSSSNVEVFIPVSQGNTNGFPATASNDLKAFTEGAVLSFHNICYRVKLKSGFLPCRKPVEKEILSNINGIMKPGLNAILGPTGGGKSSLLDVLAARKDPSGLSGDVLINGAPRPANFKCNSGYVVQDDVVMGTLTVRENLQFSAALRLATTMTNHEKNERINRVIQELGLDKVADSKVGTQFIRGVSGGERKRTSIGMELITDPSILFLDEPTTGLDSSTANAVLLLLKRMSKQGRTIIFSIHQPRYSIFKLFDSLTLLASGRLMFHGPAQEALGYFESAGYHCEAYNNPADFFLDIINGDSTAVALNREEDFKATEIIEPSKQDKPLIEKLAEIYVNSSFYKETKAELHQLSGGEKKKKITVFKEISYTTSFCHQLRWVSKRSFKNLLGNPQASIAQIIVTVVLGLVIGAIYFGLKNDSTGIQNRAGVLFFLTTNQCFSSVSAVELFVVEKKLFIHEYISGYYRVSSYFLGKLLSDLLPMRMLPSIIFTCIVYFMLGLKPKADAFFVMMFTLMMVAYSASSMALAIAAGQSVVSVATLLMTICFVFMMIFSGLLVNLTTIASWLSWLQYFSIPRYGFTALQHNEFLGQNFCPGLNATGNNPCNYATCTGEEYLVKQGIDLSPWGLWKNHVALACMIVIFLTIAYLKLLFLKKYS
The nature of data set [4]: PK (free brain-to-free plasma ratio) (mouse). The data set is classed as in vivo. Particulars: male CD-1 mice, oral gavage 10 mg/kg, unbound brain-to-unbound plasma, read-out: B/P ratio (free). How it is done:
The ability of representative compounds to penetrate the BBB in mice was determined by evaluating the unbound brain-to-unbound plasma (also referred to as free brain-to-free plasma) concentration ratio in male CD-1 mice.
Brain compound levels were generated from oral mouse PK dosing with typical sampling times of 2, 4, 8, 12 and 24 hours post oral gavage dosing at 10 mg/kg. Brain samples were stored at −20±5° C. prior to analysis. Concentrations of test compound in mouse brain homogenate were determined by liquid chromatography tandem mass spectrometry (LC-MS/MS) following protein precipitation with acetonitrile. A 12-point calibration curve, ranging from 0.5 to 10,000 ng/mL, was prepared in duplicate. A solution of 400 μg/mL of test compound in dimethyl sulfoxide (DMSO) was serially diluted (3-fold) in 100% DMSO, and then 2.5 μL of each standard solution was added to 100 μL of naïve male CD-1 mice brain homogenate. To mimic the extraction in the standard curve, 2.5 μL of DMSO was added to all test samples. Both calibration and test brain homogenate samples were spiked with 10 μL of an IS (1 μg/mL of a structural analog). Brain homogenate was generated by adding 0.75 mL of 4:1 water:MeOH to each brain sample followed by homogenization for 1 minute with bead beater tubes a 6 m/s using an MP Fast Prep-24®. Proteins were precipitated from 100 μL of brain homogenate sample by the addition of 300 μL of acetonitrile. Samples were vortex-mixed for 5 minutes and spun in an Allegra X-12R centrifuge (Beckman Coulter, Fullerton, CA; SX4750A rotor) for 15 min at approximately 1,500×g at 4° C. A 100 μL aliquot of each supernatant was transferred via a 550 μL Personal Pipettor (Apricot Designs, Monrovia, CA) to 96-well plates and diluted 1:1 with HPLC grade water. The resulting plates were sealed with aluminum for LC-MS/MS analysis.
Brain-to-plasma ratios were calculated using the concentration of compound measured in the brain divided by the concentration of compound measured in the plasma. Brain-to-plasma ratios were always generated from a single animal and time point. Free brain-to-free plasma ratios were calculated by multiplying the brain-to-plasma ratio by the in vitro brain homogenate free fraction divided by the in vitro plasma free fraction using the following equation: (B/P)*(Bfu/Pfu). Table C provides the free brain-to-free plasma ratios of compounds disclosed herein.

Data set [5] concerns the target P-gp (MDR1) (Homo sapiens (Human), UniProt P08183). The data set is described as follows: MDR1 LLC-PK1 permeability assay: efflux ratio. The note with it: pig. The data set is classed as in vitro ADME.
Excerpt: as §1

For data set [6], the system named is H1755 cells. Put plainly: Cellular phospho-ERK inhibition assay in H1755 cells. The data set is classed as cell-based. The note with it: Homo sapiens, NCI-H1755, 2 hours treatment, read-out: H1755 Cell IC50. In a few lines: as §2
Data set [7] addresses full-length FLAG-tagged B-Raf(V600E) (Homo sapiens (Human), UniProt P15056, V600E). The data set is described as follows: BRAF V600E enzyme assay (TR-FRET competitive displacement). The data set is classed as binding. In a few lines: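 TR-FRET tracer competition: compound (top dose 10 μM, 3-fold, 11 points) incubated 60 min at ambient temperature with FLAG-tagged full-length B-Raf(V600E) (5 nM), Eu anti-FLAG cryptate (0.5 nM) and tracer (50 nM), pH 7.4 HEPES/MgCl2 buffer. 665/615 ratio converted to percent of control; IC50 where fitted curve crosses 50 POC.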
A general note: In TR-FRET formats the signal depends on donor and acceptor labels being close together.

The mark [8] stands for this setting: averaged IC50, TR-FRET tracer displacement, 60 min.

Data on 11 compounds can be found in patent US12303509B2, “Compounds for the treatment of BRAF-associated diseases and disorders” (Pfizer Inc., priority 2020, dated 2025).

Where a name gives a salt, the structure may show the parent alone. Read-outs that look alike come from different tables or passages of the source.

Chain of P-gp (MDR1) (P08183 whole entry, species assumed): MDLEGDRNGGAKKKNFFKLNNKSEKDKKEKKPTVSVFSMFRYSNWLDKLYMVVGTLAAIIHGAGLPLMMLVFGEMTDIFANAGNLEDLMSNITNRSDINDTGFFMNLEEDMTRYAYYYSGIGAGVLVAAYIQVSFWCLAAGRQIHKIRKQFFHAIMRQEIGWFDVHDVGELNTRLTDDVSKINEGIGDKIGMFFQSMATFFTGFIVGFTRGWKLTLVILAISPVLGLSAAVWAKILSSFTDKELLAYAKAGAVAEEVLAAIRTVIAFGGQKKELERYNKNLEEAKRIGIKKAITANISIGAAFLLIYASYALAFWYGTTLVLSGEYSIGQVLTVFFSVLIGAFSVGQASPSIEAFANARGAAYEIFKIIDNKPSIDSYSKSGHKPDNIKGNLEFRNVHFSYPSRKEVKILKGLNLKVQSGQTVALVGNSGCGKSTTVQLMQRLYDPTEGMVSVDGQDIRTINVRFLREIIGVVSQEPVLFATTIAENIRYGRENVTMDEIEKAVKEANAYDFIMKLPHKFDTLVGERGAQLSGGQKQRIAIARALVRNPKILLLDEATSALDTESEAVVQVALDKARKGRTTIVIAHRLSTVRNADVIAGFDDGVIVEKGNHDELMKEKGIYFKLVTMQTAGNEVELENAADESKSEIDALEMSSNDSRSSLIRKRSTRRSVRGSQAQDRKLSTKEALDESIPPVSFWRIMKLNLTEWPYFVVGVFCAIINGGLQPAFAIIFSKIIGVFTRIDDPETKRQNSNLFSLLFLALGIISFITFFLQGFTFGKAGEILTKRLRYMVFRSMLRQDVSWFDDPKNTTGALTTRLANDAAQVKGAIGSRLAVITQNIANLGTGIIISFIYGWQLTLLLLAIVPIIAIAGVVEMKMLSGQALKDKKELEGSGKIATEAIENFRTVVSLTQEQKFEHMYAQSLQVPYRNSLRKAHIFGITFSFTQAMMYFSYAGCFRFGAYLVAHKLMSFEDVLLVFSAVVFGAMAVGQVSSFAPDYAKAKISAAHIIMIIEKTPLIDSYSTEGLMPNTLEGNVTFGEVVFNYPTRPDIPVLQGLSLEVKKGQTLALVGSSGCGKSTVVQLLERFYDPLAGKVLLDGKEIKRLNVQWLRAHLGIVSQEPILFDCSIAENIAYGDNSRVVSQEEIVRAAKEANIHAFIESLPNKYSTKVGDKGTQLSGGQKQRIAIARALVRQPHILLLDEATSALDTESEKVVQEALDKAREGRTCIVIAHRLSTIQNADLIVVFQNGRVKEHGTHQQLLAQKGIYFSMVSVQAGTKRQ
Chain of full-length FLAG-tagged B-Raf(V600E) (P15056 whole entry V600E): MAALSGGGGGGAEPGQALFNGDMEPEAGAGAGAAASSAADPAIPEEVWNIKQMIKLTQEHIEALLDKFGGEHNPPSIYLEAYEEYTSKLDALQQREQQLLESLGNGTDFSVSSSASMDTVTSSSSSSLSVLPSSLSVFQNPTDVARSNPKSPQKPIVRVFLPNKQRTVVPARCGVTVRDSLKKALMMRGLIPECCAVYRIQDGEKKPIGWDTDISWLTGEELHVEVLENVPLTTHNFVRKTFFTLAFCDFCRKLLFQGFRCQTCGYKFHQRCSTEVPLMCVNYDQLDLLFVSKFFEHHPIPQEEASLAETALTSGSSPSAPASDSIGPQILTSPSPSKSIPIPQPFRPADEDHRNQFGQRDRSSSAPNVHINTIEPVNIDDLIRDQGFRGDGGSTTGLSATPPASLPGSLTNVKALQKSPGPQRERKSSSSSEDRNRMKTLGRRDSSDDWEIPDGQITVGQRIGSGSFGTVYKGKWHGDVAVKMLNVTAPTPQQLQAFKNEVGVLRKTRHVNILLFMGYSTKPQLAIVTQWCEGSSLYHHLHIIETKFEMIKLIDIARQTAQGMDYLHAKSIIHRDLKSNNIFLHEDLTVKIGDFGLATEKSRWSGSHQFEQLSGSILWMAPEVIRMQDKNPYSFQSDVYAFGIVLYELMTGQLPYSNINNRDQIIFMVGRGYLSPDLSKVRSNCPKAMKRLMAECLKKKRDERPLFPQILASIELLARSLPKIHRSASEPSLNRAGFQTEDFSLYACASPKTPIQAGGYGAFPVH

`Cn1cnc2ccc(Nc3c(F)ccc(NS(=O)(=O)N4CC5CC5C4)c3Cl)c(F)c2c1=O` (centres unmarked) [Example 30, N-(2-chloro-4-fluoro-3-((5-fluoro-3-methyl-4-oxo-3,4-dihydroquinazolin-6-yl)amino)phenyl)-3-azabicyclo[3.1.0]hexane-3-sulfonamide trifluoroacetate] yielded a Papp at 2 h, 1 µM in data set [1] of 40 ×10⁻⁶ cm/s. The half-maximal inhibitory concentration (IC50) in data set [2] worked out at 4 nM; in data set [6], 42 nM; in data set [7] (setting [8]), 2 nM. The figures for the efflux ratio at 2 h, 1 µM in data set [3] and in data set [5] were 1.2 and 1.5, respectively. Moreover, in data set [4], the Kp was 0.51 to 0.64.

`CO[C@@H]1CCN(S(=O)(=O)Nc2ccc(F)c(Oc3ccc4ncn(C)c(=O)c4c3Cl)c2Cl)C1` [Example 37, (R)-N-(2-chloro-3-((5-chloro-3-methyl-4-oxo-3,4-dihydroquinazolin-6-yl)oxy)-4-fluorophenyl)-3-methoxypyrrolidine-1-sulfonamide]: the Papp at 2 h, 1 µM in data set [1] was 29 ×10⁻⁶ cm/s. The IC50 in data set [2] was 4 nM; in data set [6] it was 33 nM; in data set [7] (setting [8]) it was 4 nM. Besides, the efflux ratio at 2 h, 1 µM in data set [3] worked out at 1.5; in data set [5] it was 2.4. Also, the Kp in data set [4] lay within 0.66 to 0.73.

In turn, `Cn1cnc2ccc(Oc3c(F)ccc(NS(=O)(=O)N4CC[C@@H](F)C4)c3Cl)c(Cl)c2c1=O` [Example 38, (R)-N-(2-chloro-3-((5-chloro-3-methyl-4-oxo-3,4-dihydroquinazolin-6-yl)oxy)-4-fluorophenyl)-3-fluoropyrrolidine-1-sulfonamide] had a Papp at 2 h, 1 µM in data set [1] of 33 ×10⁻⁶ cm/s. For the same compound, the IC50 in data set [2] amounted to 5 nM; in data set [6] it was 27 nM; in data set [7] (setting [8]) it was 2 nM. Besides, the figures for the efflux ratio at 2 h, 1 µM in data set [3] and in data set [5] were 1.8 and 1.2, respectively. In addition, in data set [4], the Kp fell in the range of 0.2 to 0.24.

The compound `Cn1cnc2ccc(Nc3c(F)c(F)cc(NS(=O)(=O)N4CCCC4)c3Cl)c(F)c2c1=O` [Example 40, N-(2-chloro-4,5-difluoro-3-((5-fluoro-3-methyl-4-oxo-3,4-dihydroquinazolin-6-yl)amino)phenyl)pyrrolidine-1-sulfonamide trifluoroacetate] had a Papp at 2 h, 1 µM in data set [1] of 29 ×10⁻⁶ cm/s. Besides, the half-inhibitory concentration (IC50) in data set [2] worked out at 4 nM; in data set [6] it was 50 nM; in data set [7] (setting [8]) it was 2 nM. For the same compound, the efflux ratio at 2 h, 1 µM in data set [3] is 2.3; in data set [5] it was 2. The Kp in data set [4] lay within 0.55 to 0.72.

The compound `Cn1cnc2ccc(Nc3c(F)c(F)cc(NS(=O)(=O)N4CC5CC4C5)c3Cl)c(F)c2c1=O` [Example 41, N-(2-chloro-4,5-difluoro-3-((5-fluoro-3-methyl-4-oxo-3,4-dihydroquinazolin-6-yl)amino)phenyl)-2-azabicyclo[2.1.1]hexane-2-sulfonamide trifluoroacetate] returned a Papp at 2 h, 1 µM in data set [1] of 29 ×10⁻⁶ cm/s. The IC50 in data set [2] worked out at 5 nM; in data set [6], 42 nM; in data set [7] (setting [8]), 3 nM. The efflux ratio at 2 h, 1 µM in data set [3] is 2.5; in data set [5] it was 1.9. Besides, the Kp in data set [4] is 0.35 to 0.45.

`Cn1cnc2ccc(Oc3c(F)ccc(NS(=O)(=O)N4CCCC4)c3Cl)c(F)c2c1=O` [Example 44, N-(2-chloro-4-fluoro-3-((5-fluoro-3-methyl-4-oxo-3,4-dihydroquinazolin-6-yl)oxy)phenyl)pyrrolidine-1-sulfonamide trifluoroacetate] returned a Papp at 2 h, 1 µM in data set [1] of 34 ×10⁻⁶ cm/s. Besides, the IC50 in data set [2] turned out to be 3 nM; in data set [6], 56 nM; in data set [7] (setting [8]), 2 nM. Besides, the efflux ratio at 2 h, 1 µM stood at 0.9 in data set [3] and 1.4 in data set [5]. In addition, in data set [4], the Kp was in the range of 0.35 to 0.47.

In turn, `CO[C@@H]1CCN(S(=O)(=O)Nc2ccc(F)c(Oc3ccc4ncn(C)c(=O)c4c3F)c2Cl)C1` [Example 48, (R)-N-(2-chloro-4-fluoro-3-((5-fluoro-3-methyl-4-oxo-3,4-dihydroquinazolin-6-yl)oxy)phenyl)-3-methoxypyrrolidine-1-sulfonamide trifluoroacetate] yielded a Papp at 2 h, 1 µM in data set [1] of 29 ×10⁻⁶ cm/s. Moreover, the concentration for half-maximal inhibition (IC50) turned out to be 1 nM in data set [2], 36 nM in data set [6] and 3 nM in data set [7] (setting [8]). Also, the efflux ratio at 2 h, 1 µM in data set [3] stood at 1.7; in data set [5], 2.2. Moreover, the Kp in data set [4] is 0.29 to 0.33.

For `Cc1c(Oc2c(F)ccc(NS(=O)(=O)N3CC[C@@H](F)C3)c2Cl)ccc2ncn(C)c(=O)c12` [Example 70, (R)-N-(2-chloro-3-((3,5-dimethyl-4-oxo-3,4-dihydroquinazolin-6-yl)oxy)-4-fluorophenyl)-3-fluoropyrrolidine-1-sulfonamide], the Papp at 2 h, 1 µM in data set [1] came out at 25 ×10⁻⁶ cm/s. Moreover, the IC50 in data set [2] is 14 nM; in data set [6], 43 nM; in data set [7], 8 nM. The results for the efflux ratio at 2 h, 1 µM in data set [3] and in data set [5] were 1 and 1.8, respectively. In data set [4], the Kp lay in the range of 0.17 to 0.36.

`COC1CN(S(=O)(=O)Nc2ccc(F)c(Nc3ccc4ncn(C)c(=O)c4c3Cl)c2Cl)C1` [Example 129, N-(2-chloro-3-((5-chloro-3-methyl-4-oxo-3,4-dihydroquinazolin-6-yl)amino)-4-fluorophenyl)-3-methoxyazetidine-1-sulfonamide] registered an apparent permeability (Papp) at 2 h, 1 µM in data set [1] of 37 ×10⁻⁶ cm/s. The 50% inhibitory concentration (IC50) amounted to 9 nM in data set [2], 37 nM in data set [6] and 12 nM in data set [7] (setting [8]). In addition, the efflux ratio at 2 h, 1 µM in data set [3] was 5.3; in data set [5], 1.6. Besides, the Kp in data set [4] is 0.18 to 0.22.

Take `COC1CN(S(=O)(=O)Nc2ccc(F)c(Nc3ccc4ncn(C)c(=O)c4c3F)c2Cl)C1` [Example 130, N-(2-chloro-4-fluoro-3-((5-fluoro-3-methyl-4-oxo-3,4-dihydroquinazolin-6-yl)amino)phenyl)-3-methoxyazetidine-1-sulfonamide]: the Papp at 2 h, 1 µM in data set [1] amounted to 30 ×10⁻⁶ cm/s. The values for the IC50 in data set [2], in data set [6] and in data set [7] (setting [8]) were 7 nM, 38 nM and 11 nM, respectively. The efflux ratio at 2 h, 1 µM in data set [3] came out at 7.6; in data set [5], 2.3. Besides, the Kp in data set [4] was 0.12 to 0.16.

Regarding `COCC1CN(S(=O)(=O)Nc2ccc(F)c(Nc3ccc4ncn(C)c(=O)c4c3C)c2Cl)C1` [Example 131, N-(2-chloro-3-((3,5-dimethyl-4-oxo-3,4-dihydroquinazolin-6-yl)amino)-4-fluorophenyl)-3-(methoxymethyl)azetidine-1-sulfonamide], the Papp at 2 h, 1 µM in data set [1] is 55 ×10⁻⁶ cm/s. For the same compound, the results for the IC50 in data set [2], in data set [6] and in data set [7] (setting [8]) were 13 nM, 38 nM and 16 nM, respectively. In addition, the efflux ratio at 2 h, 1 µM in data set [3] amounted to 1.7; in data set [5], 2.1. Further, in data set [4], the Kp lay in the range of 0.3 to 0.5.

As usually defined, the Papp is the rate of passage across a membrane or cell layer, normalised by area and donor concentration. For orientation: IC50 means the midpoint of a concentration-inhibition curve. A word on the efflux ratio: it is the permeability from basolateral to apical divided by that in the opposite direction, in the common usage.
